Source: patent publication US20200383969A1, “RIMEGEPANT FOR CGRP RELATED DISORDERS” (Biohaven Pharmaceutical Holding Company Ltd., priority 2018, published 2020)

Test: Study 302 (BHV3000-302), Phase 3, rimegepant 75 mg tablet vs placebo, acute treatment of migraine
Format: in vivo, human
Description: Clinical Trial—BHV3000-302 : Phase 3: Double-Blind, Randomized, Placebo-Controlled, Safety and Efficacy Trial of BHV-3000 (Rimegepant) for the Acute Treatment of Migraine (ClinicalTrials.gov Identifier: NCT03237845) • Study Type: Interventional (Clinical Trial) • Actual Enrollment: 1503 participants • Allocation: Randomized • Intervention Model: Parallel Assignment • Intervention Model Description: Double-blind to Sponsor, Investigator and Subject • Masking: Triple (Participant, Care Provider, Investigator) • Masking Description: Double-blind to Sponsor, Investigator and Subject • Primary Purpose: Treatment • Official Title: BHV3000-302: Phase 3: Double-Blind, Randomized, Placebo-Controlled, Safety and Efficacy Trial of BHV-3000 (Rimegepant) for the Acute Treatment of Migraine • Actual Study Start Date : Jul. 26, 2017 • Primary Completion Date : Jan. 25, 2018 • Study Completion Date : Jan. 31, 2018 • 1. Pain Freedom of rimegepant (75 mg tablet) compared with placebo in the acute treatment of migraine will be measured using the number of evaluable subjects that report no pain at 2 hours post-dose. [Time Frame: Two hours post dose] • Pain will be measured on a 4 point Likert scale (0=none, 1=mild, 2=moderate, 3=severe) • 2. Freedom from the most bothersome symptom (MBS) of rimegepant (75 mg tablet) compared with placebo will be measured using the number of evaluable subjects that report the absence of their MBS at 2 hours post-dose. [Time Frame: Two hours post dose] • The MBS (nausea, phonophobia or photophobia) will measured using a binary scale (0=absent, 1=present). • 1. […] [Time Frame: 2 hours -24 hours post-dose] • Sustained Pain Freedom as measured by a 4 point numeric rating scale (None, Mild, Moderate, Severe) • 2. Rimegepant (75 mg tablet) compared to placebo by tabulating the number of subjects that report the absence of photophobia at 2 hours post-dose in the subset of subjects that reported the presence of photophobia at headache baseline. [Time Frame: 2 hours post-dose] • Freedom from Photophobia • 3. Rimegepant (75 mg tablet) compared to placebo by tabulating the number of subjects that report the absence of phonophobia at 2 hours post-dose in the subset of subjects that reported the presence of phonophobia at headache baseline. [Time Frame: 2 hours post-dose] • Freedom from Phonophobia • 4. To measure rimegepant (75 mg tablet) compared to placebo on Pain Relief, at 2 hours post-dose, that report a pain level of moderate or severe at baseline and then report a pain level of none or mild. [Time Frame: 2 hours post-dose] • Pain Relief as measured by a 4 point numeric rating scale (None, Mild, Moderate, Severe) • 5. Freedom from Nausea will by tabulating the number of subjects that report the absence of nausea at 2 hours post-dose in the subset of subjects that reported the presence of nausea at headache baseline. [Time Frame: 2 hours post-dose] • Freedom from Nausea • 6. To measure rimegepant (75 mg tablet) compared to placebo on the probability of requiring rescue medication will be assessed using the number of subjects that take rescue medication within […] administration of study medication (BHV3000 or placebo). [Time Frame: up to 24 hours post-dose] • Requiring Rescue Medication • 7. […] [Time Frame: 2 hours-48 hours post-dose] • Sustained Pain Freedom as measured by a 4 point numeric rating scale (None, Mild, Moderate, Severe) • 8. […] [Time Frame: 2 hours-24 hours post-dose] • Sustained Pain Relief as measured by a 4 point numeric rating scale (None, Mild, Moderate, Severe) • 9. […] [Time Frame: 2 hours-48 hours post-dose] • Sustained Pain Relief as measured by a 4 point numeric rating scale (None, Mild, Moderate, Severe) • 10. Rimegepant (75 mg tablet) relative to placebo on the proportion of subjects able to function normally, at 2 hours, using the number of subjects that self-report as “normal” on the functional disability scale. [Time Frame: 2 hours post-dose] • Functional Disability Score • 11. […]

N[C@@H]1c2cccnc2[C@H](OC(=O)N2CCC(n3c(=O)[nH]c4ncccc43)CC2)CC[C@H]1c1cccc(F)c1F [Rimegepant, [(5S,6S,9R)-5-amino-6-(2,3-difluorophenyl)-6,7,8,9-tetrahydro-5H-cyclohepta[b]pyridin-9-yl] 4-(2-oxo-3H-imidazo[4,5-b]pyridin-1-yl)piperidine-1-carboxylate]
SAEs related to the study drug: No SAEs
AE nausea, incidence (75 mg tablet): 1.8%
AE nausea, n/N (75 mg tablet): 10/543
AE urinary tract infection, incidence (75 mg tablet): 1.5%
AE urinary tract infection, n/N (75 mg tablet): 8/543
Bilirubin elevations greater than 2 times ULN (75 mg tablet): no bilirubin elevations
Serum ALT or AST > ULN, n/N (75 mg tablet): 13/543
Serum ALT or AST > ULN, subjects (75 mg tablet): 2.4%
Transaminase level greater than 3 times ULN (75 mg tablet): No subject
Normal function at 2 hours (functional disability) vs placebo (P<0.0001): greater proportion
Serious AEs, number of subjects (back pain): 1
Sustained pain relief from 2 through 48 hours postdose vs placebo (single dose, no rescue medication, P<0.0001): superiority versus placebo
Sustained pain freedom from 2 through 48 hours postdose vs placebo (single dose, no rescue medication, P=0.0181): superiority versus placebo
